We go through 21 compounds from patent US9315458B2, “Nitrogen-containing heterocyclic compound” (Takeda Pharmaceutical Company Limited, priority 2014, dated 2016).

This assay deals with T1, human M1 receptor (hCHRM1) (Homo sapiens, UniProt P11229).
T1 construct: expressed in transfected cells
T1 sequence (P11229 1-460): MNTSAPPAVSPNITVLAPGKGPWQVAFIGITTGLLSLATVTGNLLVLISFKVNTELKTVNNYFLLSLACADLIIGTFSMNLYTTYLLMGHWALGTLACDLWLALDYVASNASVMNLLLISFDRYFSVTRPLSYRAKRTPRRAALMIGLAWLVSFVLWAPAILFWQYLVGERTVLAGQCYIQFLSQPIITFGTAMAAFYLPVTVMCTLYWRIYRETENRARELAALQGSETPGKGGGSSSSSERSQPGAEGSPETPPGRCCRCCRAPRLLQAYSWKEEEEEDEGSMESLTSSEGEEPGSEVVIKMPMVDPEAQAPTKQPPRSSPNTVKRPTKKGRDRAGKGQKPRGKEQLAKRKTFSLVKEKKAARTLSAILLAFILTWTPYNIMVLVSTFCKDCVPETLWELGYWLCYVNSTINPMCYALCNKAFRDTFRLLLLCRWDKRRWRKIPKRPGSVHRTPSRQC
As to the kind of experiment: Measurement of M1 receptor positive allosteric modulator (M1PAM) activity, calcium fluorescence (FLIPRtetra) with acetylcholine at EC20. The class given is cell-based. As to conditions: for activity (%) at 10 μM: 10 μM test compound, 100% = acetylcholine 1 μM, 0% = DMSO, acetylcholine at EC20; for pEC50: inflection point of concentration-dependent curve, CHO-K1 cells expressing hCHRM1, acetylcholine at EC20 (final 0.6-0.8 nM), read-out: IP value. Summed up:
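CHO-K1 cells stably expressing hCHRM1, Fluo-4 AM loaded; compound added with acetylcholine at EC20 (final 0.6-0.8 nM), fluorescence read 1 min. Activity normalised to 1 μM acetylcholine (100%) and DMSO (0%); IP values taken as inflection point of the concentration-response curve.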

The structures appear in SMILES notation. pEC50: −log10 of the molar value.

`CNC(=O)c1ccc(Cc2cc3c(c(C)c2C)CN(CC(C)(C)O)C3=O)cc1F` [Example 138, 2-fluoro-4-((2-(2-hydroxy-2-methylpropyl)-6,7-dimethyl-3-oxo-2,3-dihydro-1H-isoindol-5-yl)methyl)-N-methylbenzamide]: the “activity (%) at 10 μM” value amounted to 106% and the pEC50 is 7.60.
The corresponding values for `CNC(=O)c1ccc(Cc2cc3c(c(C)c2C)CN(C[C@@H]2CCCO2)C3=O)cc1F` [Example 139, 4-((6,7-dimethyl-3-oxo-2-((2S)-tetrahydrofuran-2-ylmethyl)-2,3-dihydro-1H-isoindol-5-yl)methyl)-2-fluoro-N-methylbenzamide] are 102% and 7.85.
The corresponding values for `Cc1c(Cc2ccc(-c3ccn(C)n3)cc2)cc2c(c1F)CN([C@H]1COCC[C@@H]1O)C2=O` [Example 140, 4-fluoro-2-[(3S,4S)-4-hydroxytetrahydro-2H-pyran-3-yl]-5-methyl-6-[4-(1-methyl-1H-pyrazol-3-yl)benzyl]-2,3-dihydro-1H-isoindol-1-one] are 93% and 8.70.
The corresponding values for `COc1ccc(Cc2cc3c(c(C)c2C)CN([C@H]2CCCC[C@@H]2O)C3=O)cc1` [Example 141, 2-((1S,2S)-2-hydroxycyclohexyl)-6-(4-methoxybenzyl)-4,5-dimethylisoindolin-1-one] are 106% and 7.74.
Take `CCOc1ccc(Cc2cc3c(c(C)c2C)CN([C@H]2COCC[C@@H]2O)C3=O)cc1` [Example 142, 6-(4-ethoxybenzyl)-2-[(3S,4S)-4-hydroxytetrahydro-2H-pyran-3-yl]-4,5-dimethyl-2,3-dihydro-1H-isoinol-1-one]: the “activity (%) at 10 μM” value stood at 106% and the pEC50 is 7.51.
For the compound `CCc1cc2c(cc1Cc1ccc(-n3cccn3)cc1F)C(=O)N([C@H]1COCC[C@@H]1O)C2` [Example 144, 5-ethyl-6-[2-fluoro-4-(1H-pyrazol-1-yl)benzyl]-2-[(3S,4S)-4-hydroxytetrahydro-2H-pyran-3-yl]-2,3-dihydro-1H-isoindol-1-one], the “activity (%) at 10 μM” value was found to be 97% and the pEC50 was 7.64.
With `CCc1cc2c(cc1Cc1ccc(OC)cc1)C(=O)N([C@H]1COCC[C@@H]1O)C2` [Example 148, 5-ethyl-2-[(3S,4S)-4-hydroxytetrahydro-2H-pyran-3-yl]-6-(4-methoxybenzyl)-2,3-dihydro-1H-isoindol-1-one], the “activity (%) at 10 μM” value amounted to 89% and the pEC50 is 7.20.
As to `CCc1ccc(Cc2cc3c(c(C)c2C)CN([C@H]2CCCC[C@@H]2O)C3=O)cn1` [Example 149, 6-((6-ethylpyridin-3-yl)methyl)-2-((1S,2S)-2-hydroxycyclohexyl)-4,5-dimethylisoindolin-1-one], the “activity (%) at 10 μM” value turned out to be 99% and the pEC50 is 7.80.
As for `COc1ccc(Cc2cc3c(c(F)c2C)CN([C@H]2COCC[C@@H]2O)C3=O)cc1` [Example 150, 4-fluoro-2-[(3S,4S)-4-hydroxytetrahydro-2H-pyran-3-yl]-6-(4-methoxybenzyl)-5-methyl-2,3-dihydro-1H-isoindol-1-one], the “activity (%) at 10 μM” value was 89% and the pEC50 is 7.85.
On to `COc1ccc(Cc2cc3c(c(Cl)c2C)CN([C@H]2CCCC[C@@H]2O)C3=O)cc1` [Example 151, 4-chloro-2-((1S,2S)-2-hydroxycyclohexyl)-6-(4-methoxybenzyl)-5-methylisoindolin-1-one], for which the “activity (%) at 10 μM” value is listed as 92% and the pEC50 is 7.80.
Taken in the same sequence, the figures for `COc1ccc(Cc2cc3c(c(Cl)c2C)CN([C@H]2CCC[C@@H]2O)C3=O)cc1` [Example 152, 4-chloro-2-((1S,2S)-2-hydroxycyclopentyl)-6-(4-methoxybenzyl)-5-methylisoindolin-1-one] were 91% and 7.33.
Regarding `Cc1c(Cc2ccc(-n3cccn3)cc2)cc2c(c1C)CN(c1ncccc1F)C2=O` [Example 153, 2-(3-fluoropyridin-2-yl)-4,5-dimethyl-6-(4-(1H-pyrazol-1-yl)benzyl)isoindolin-1-one], the “activity (%) at 10 μM” value came to 92% and the pEC50 was 7.24.
The corresponding values for `COc1ccc(Cc2cc3c(c(F)c2C)CN([C@H]2CCCC[C@@H]2O)C3=O)cc1` [Example 154, 4-fluoro-2-((1S,2S)-2-hydroxycyclohexyl)-6-(4-methoxybenzyl)-5-methylisoindolin-1-one] are 100% and 7.66.
Take `Cc1c(Cc2ccc(C#N)cc2)cc2c(c1C)CN([C@H]1CCCC[C@@H]1O)C2=O` [Example 155, 4-((2-((1S,2S)-2-hydroxycyclohexyl)-6,7-dimethyl-3-oxo-2,3-dihydro-1H-isoindol-5-yl)methyl)benzonitrile]: the “activity (%) at 10 μM” value was 100% and the pEC50 is 8.15.
In the case of `Cc1c(Cc2ccc(C#N)cc2)cc2c(c1C)CN([C@H]1COCC[C@@H]1O)C2=O` [Example 156, 4-({2-[(3S,4S)-4-hydroxytetrahydro-2H-pyran-3-yl]-6,7-dimethyl-3-oxo-2,3-dihydro-1H-isoindol-5-yl}methyl)benzonitrile], the “activity (%) at 10 μM” value is 80% and the pEC50 is 8.37.
With `COc1ccc(Cc2cc3c(c(F)c2OC)CN([C@H]2COCC[C@@H]2O)C3=O)cc1` [Example 157], the “activity (%) at 10 μM” value was 97% and the pEC50 was 7.08.
With `COc1ccc(Cc2cc3c(c(C)c2C)CN([C@H]2COCC[C@@H]2O)C3=O)cc1F` [Example 158, 6-(3-fluoro-4-methoxybenzyl)-2-[(3S,4S)-4-hydroxytetrahydro-2H-pyran-3-yl]-4,5-dimethyl-2,3-dihydro-1H-isoindol-1-one], the “activity (%) at 10 μM” value is on record as 111% and the pEC50 is 7.55.
The corresponding values for `COc1ccc(Cc2cc3c(c(C)c2C)CN([C@H]2COCC[C@@H]2O)C3=O)cc1C` [Example 160, 2-[(3S,4S)-4-hydroxytetrahydro-2H-pyran-3-yl]-6-(4-methoxy-3-methylbenzyl)-4,5-dimethyl-2,3-dihydro-1H-isoindol-1-one] are 112% and 7.33.
Taken in the same sequence, the figures for `COc1ccc(Cc2cc3c(c(F)c2OC)CN([C@H]2CCCC[C@@H]2O)C3=O)cc1` [Example 161, 4-fluoro-2-((1S,2S)-2-hydroxycyclohexyl)-5-methoxy-6-(4-methoxybenzyl)isoindol-1-one] were 94% and 7.49.
For `Cc1c(Cc2ccc(-n3cccn3)cc2)cc2c(c1C)CN(c1ncc(Cl)cc1F)C2=O` [Example 162, 2-(5-chloro-3-fluoropyridin-2-yl)-4,5-dimethyl-6-(4-(1H-pyrazol-1-yl)benzyl)isoindolin-1-one], the “activity (%) at 10 μM” value amounted to 95% and the pEC50 was 7.18.
The corresponding values for `COc1ccc(Cc2cc3c(c(C)c2C)CN([C@H]2COCC[C@@H]2O)C3=O)c(F)c1` [Example 163, 6-(2-fluoro-4-methoxybenzyl)-2-[(3S,4S)-4-hydroxytetrahydro-2H-pyran-3-yl]-4,5-dimethyl-2,3-dihydro-1H-isoindol-1-one] are 108% and 7.29.
